Test results as given in patent US5989846A, “Assays to identify inducers of plant defense resistance” (Rutgers, The State University of New Jersey, priority 1995, dated 1999).

Molecular target: T1, catalase activity of SABP (Nicotiana tabacum, UniProt P49319)
T1 sequence (P49319 1-492): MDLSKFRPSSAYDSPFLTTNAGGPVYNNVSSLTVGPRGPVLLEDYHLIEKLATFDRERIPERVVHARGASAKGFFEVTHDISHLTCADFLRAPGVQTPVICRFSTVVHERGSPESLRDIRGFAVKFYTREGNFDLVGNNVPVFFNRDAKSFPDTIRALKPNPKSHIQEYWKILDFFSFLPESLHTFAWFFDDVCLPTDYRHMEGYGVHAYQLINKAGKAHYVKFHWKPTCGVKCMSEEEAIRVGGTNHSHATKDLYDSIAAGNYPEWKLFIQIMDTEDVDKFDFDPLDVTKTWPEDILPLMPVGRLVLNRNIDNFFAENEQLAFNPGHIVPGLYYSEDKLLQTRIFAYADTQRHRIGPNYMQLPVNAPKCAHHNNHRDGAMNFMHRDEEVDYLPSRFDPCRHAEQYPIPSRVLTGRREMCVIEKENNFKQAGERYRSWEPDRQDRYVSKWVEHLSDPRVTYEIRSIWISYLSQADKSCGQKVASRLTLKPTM
Test: Catalase activity of highly purified SABP (luminol method)
Format: biochemical, tobacco
Settings: 0.05 h; 1 mM SA or analogue, 1 mM H2O2, 500 ng highly purified SABP
Procedure, shortened: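 H2O2 remaining was sampled every 30 s from purified SABP reactions, with or without SA or analogues. Measured by luminol chemiluminescence triggered by 0.5 mM K3Fe(CN)6 in 0.2N NH4OH, pH 9.5, and quantified against an H2O2 standard curve; first-order rate constants calculated.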

## O=C(O)c1ccccc1O [salicylic acid, 2-hydroxybenzoic acid]
  inhibition at 1000 µM: 80%
